{"source": "patent US20230181801A1", "about": "“MOLECULAR IODINE-INFUSED POLYMERS, ARTICLES, AND PRODUCTS, AND THEIR PREPARATION AND USE” (I2PURE CORP., priority 2021, published 2023)", "key": {"[1]": {"settings": "room temperature; cited from earlier work"}, "[2]": {"assay": "Stability of molecular iodine in solvent at room temperature", "format": "physicochemical", "settings": "in ethanol, 15 days at room temperature in the dark"}}}
{"smiles": "II", "note": "[I2, molecular iodine]", "values": [{"measurement": "maximum solubility in water", "setting": "[1]", "result": 332, "unit": "ppm"}, {"measurement": "loss of molecular iodine", "setting": "[2]", "result": "over 15%"}]}
